Experimental data taken from ChEMBL document CHEMBL1201862, “PubChem BioAssay data set” (2004).
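Values below derive from 48-hour exposures of cells grown in 96-well plates, with endpoints linearly interpolated between the two concentrations bracketing the appropriate inhibition level. At the GI50, growth is halved.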 Activity calls are given as the source filed them. Cut-off read from the data, not from the text of the source: active = GI50 up to about 1.1 µM and inactive = higher.

Experiments:
Assay in all cases: NCI tumour cell line growth inhibition, 48 h
HCT-116 = tested on: HCT-116
HL-60 = tested on: HL-60
IGROV-1 = tested on: IGROV-1
LOX IMVI = tested on: LOX IMVI
M14 = tested on: M14
Malme-3M = tested on: Malme-3M
NCI-H226 = tested on: NCI-H226
NCI-H522 = tested on: NCI-H522
OVCAR-3 = tested on: OVCAR-3
OVCAR-4 = tested on: OVCAR-4
OVCAR-5 = tested on: OVCAR-5
SF-539 = tested on: SF-539
SK-OV-3 = tested on: SK-OV-3
U-251 = tested on: U-251
UACC-257 = tested on: UACC-257
CAKI-1 = tested on: CAKI-1
786-0 = tested on: 786-0

Measured: GI50

Nc1nc(SCCC/C=C/I)nc2c1ncn2C1OC(COP(=O)(O)O)C(O)C1O (stereo unspecified)
inactive: HCT-116 > 100 µM | HL-60 > 100 µM | IGROV-1 > 100 µM | LOX IMVI > 100 µM | M14 > 100 µM | Malme-3M > 100 µM | NCI-H226 > 100 µM | NCI-H522 > 100 µM | OVCAR-3 > 100 µM | OVCAR-4 > 100 µM | OVCAR-5 > 100 µM | SF-539 > 100 µM | SK-OV-3 > 100 µM | U-251 > 100 µM | UACC-257 > 100 µM

CCCCCOc1ccc(/C=N\c2ccc(CCc3ccc(/N=C/c4ccc(OCCCCC)cc4)cc3)cc2)cc1
inactive: HCT-116 > 100 µM | HL-60 > 100 µM | IGROV-1 > 100 µM | LOX IMVI > 100 µM | Malme-3M > 100 µM | NCI-H226 > 100 µM | NCI-H522 > 100 µM | OVCAR-3 > 100 µM | OVCAR-4 > 100 µM | OVCAR-5 > 100 µM | SF-539 > 100 µM | SK-OV-3 > 100 µM | U-251 > 100 µM | UACC-257 > 100 µM

Cn1c(=O)c2nc(NCCO)cnc2n(C)c1=O
inactive: CAKI-1 95.5 µM | HCT-116 62.8 µM | HL-60 27.2 µM | IGROV-1 > 100 µM | M14 68.2 µM | Malme-3M 44.7 µM | NCI-H522 21.5 µM | OVCAR-3 23.3 µM | OVCAR-4 62.7 µM | OVCAR-5 > 100 µM | SF-539 31.8 µM | SK-OV-3 > 100 µM | U-251 32.9 µM | UACC-257 > 100 µM

Cn1ccnc1C(c1nccn1C)C(C)(C)[N+](=O)[O-]
inactive: 786-0 > 100 µM | CAKI-1 > 100 µM | HCT-116 > 100 µM | HL-60 > 100 µM | LOX IMVI > 100 µM | M14 > 100 µM | NCI-H522 > 100 µM | OVCAR-3 > 100 µM | OVCAR-4 > 100 µM | SF-539 > 100 µM | SK-OV-3 > 100 µM | U-251 > 100 µM | UACC-257 > 100 µM

CCOC(=O)C(=O)CC(=O)C(Br)C(Br)c1ccc(Cl)cc1 (stereo unspecified)
inactive: 786-0 17.5 µM | CAKI-1 40.7 µM | HL-60 17.2 µM | IGROV-1 42.5 µM | LOX IMVI 29.2 µM | M14 21.8 µM | Malme-3M 31.8 µM | NCI-H522 23.6 µM | OVCAR-3 23.3 µM | OVCAR-4 65.9 µM | OVCAR-5 > 100 µM | SK-OV-3 > 100 µM | UACC-257 29.5 µM

C[s+]1c2ccccc2c2ccccc21
inactive: 786-0 > 100 µM | HCT-116 > 100 µM | HL-60 > 100 µM | IGROV-1 > 100 µM | LOX IMVI > 100 µM | M14 > 100 µM | Malme-3M > 100 µM | NCI-H226 58.5 µM | NCI-H522 > 100 µM | OVCAR-3 > 100 µM | OVCAR-4 > 100 µM | OVCAR-5 > 100 µM | SF-539 > 100 µM | U-251 > 100 µM

COc1cc(OC)c(Oc2cccc(OC)c2OC)c(OC)c1
inactive: 786-0 > 100 µM | CAKI-1 > 100 µM | HCT-116 > 100 µM | IGROV-1 > 100 µM | LOX IMVI > 100 µM | M14 > 100 µM | NCI-H226 > 100 µM | NCI-H522 > 100 µM | OVCAR-3 > 100 µM | OVCAR-4 > 100 µM | OVCAR-5 > 100 µM | SF-539 > 100 µM | SK-OV-3 > 100 µM | U-251 > 100 µM | UACC-257 > 100 µM

Cc1cccc(C(C)C)c1NC(=O)C(=O)C(C(=O)c1ccccc1F)C1OC(=O)c2ccccc21 (stereo unspecified)
inactive: 786-0 15.7 µM | CAKI-1 31.5 µM | HCT-116 13.6 µM | IGROV-1 24.8 µM | LOX IMVI 13.4 µM | M14 16.8 µM | Malme-3M 9.82 µM | NCI-H226 3.25 µM | NCI-H522 13.8 µM | OVCAR-3 14.4 µM | OVCAR-4 21.8 µM | OVCAR-5 40 µM | SF-539 8.28 µM | SK-OV-3 18.9 µM | U-251 7.16 µM | UACC-257 13 µM

CCOC(=O)COc1ccc(OC)c2c1C(=O)CCC2
inactive: HCT-116 > 100 µM | HL-60 > 100 µM | IGROV-1 > 100 µM | LOX IMVI > 100 µM | M14 > 100 µM | OVCAR-3 > 100 µM | OVCAR-4 > 100 µM | SF-539 > 100 µM | SK-OV-3 > 100 µM | U-251 > 100 µM | UACC-257 > 100 µM

CN(CCO)/N=N/c1[nH]cnc1C(N)=O
inactive: HCT-116 49.5 µM | HL-60 79.3 µM | IGROV-1 > 100 µM | LOX IMVI 26.2 µM | M14 37.8 µM | Malme-3M 52.8 µM | NCI-H226 > 100 µM | NCI-H522 > 100 µM | OVCAR-3 > 100 µM | OVCAR-4 > 100 µM | OVCAR-5 > 100 µM | SF-539 > 100 µM | SK-OV-3 30.9 µM | U-251 > 100 µM | UACC-257 99.8 µM

CCN(CC)CCC(=O)NC1c2ccccc2Oc2c(C)cccc21 (stereo unspecified)
inactive: 786-0 > 100 µM | HCT-116 > 100 µM | HL-60 > 100 µM | IGROV-1 > 100 µM | LOX IMVI > 100 µM | M14 > 100 µM | NCI-H226 > 100 µM | OVCAR-4 > 100 µM | OVCAR-5 > 100 µM | SF-539 > 100 µM | SK-OV-3 > 100 µM | U-251 > 100 µM | UACC-257 > 100 µM

CN(C)CCNC(=O)c1cccc2c(=O)c3ccccc3oc12
inactive: HCT-116 13.7 µM | HL-60 29.2 µM | IGROV-1 40.6 µM | LOX IMVI 20.7 µM | Malme-3M 25 µM | NCI-H226 25.2 µM | OVCAR-3 37.8 µM | OVCAR-4 34.5 µM | OVCAR-5 24.3 µM | SF-539 53.3 µM | SK-OV-3 25.1 µM | U-251 44.4 µM | UACC-257 26.9 µM

COc1ccc2c(c1)[n+]([O-])c(C(=O)C/C(=N/NC(=O)c1ccccc1O)C(=O)Nc1ccc(Cl)c(C(F)(F)F)c1)c(C)[n+]2[O-]
inactive: 786-0 54.5 µM | HCT-116 48.2 µM | IGROV-1 44 µM | LOX IMVI 79.8 µM | M14 51.4 µM | Malme-3M 49.7 µM | NCI-H226 > 100 µM | NCI-H522 39.6 µM | OVCAR-3 28.9 µM | OVCAR-4 87.9 µM | OVCAR-5 45.4 µM | SF-539 > 100 µM | SK-OV-3 > 100 µM | U-251 > 100 µM | UACC-257 91.6 µM

CC(C)=CC(=O)CC(=O)C(=O)Nc1ccc(Cl)c(Cl)c1
inactive: 786-0 > 100 µM | HCT-116 > 100 µM | HL-60 > 100 µM | IGROV-1 > 100 µM | M14 > 100 µM | Malme-3M > 100 µM | NCI-H226 > 100 µM | NCI-H522 > 100 µM | OVCAR-3 > 100 µM | OVCAR-4 > 100 µM | OVCAR-5 > 100 µM | SF-539 > 100 µM | SK-OV-3 > 100 µM | U-251 > 100 µM | UACC-257 > 100 µM
